This is an account of results in patent US11814366B2, “Antiviral compounds and use thereof” (UNIVERSITA DEGLI STUDI DI SIENA, priority 2018, dated 2023).

In data set [1] the test system is HSV-2. The data set is described as follows: HSV-2 plaque reduction assay on Vero cells. The data set is classed as cell-based, Herpes 2 virus (HSV-2).
Data set [2] is described as follows: Lipoperoxidation test (TBA assay).
Method: To evaluate the lipid oxidation capability of 15b, a lipoperoxidation test was carried out.
The effect of 15b was evaluated toward the oxidation of linoleic acid, incorporated in DPPC liposomes, using TBA assay. The assay is based on the reactivity of malondialdehyde (MDA), a colorless end-product of degradation, with 2-thiobarbituric acid (TBA) to produce a pink adduct (TBA-MDA-TBA) that absorbs at 535 nm. […] MDA was detected spectrophotometrically according to methods described in literature (Boon-Huat Bay, Yuan-Kun Lee, Benny Kwong-Huat Tan, Eng-Ang Ling, Lipid peroxidative stress and antioxidative enzymes in brains of milk-supplemented rats, Neuroscience Letters 277 (1999) 127-130).
15b was incubated at 37° C. for 2 h with a 0.5% linoleic acid containing liposome aqueous dispersion (Cagno, V.; Tintori, C.; Civra, A.; Cavalli, R.; Tiberi, M.; Botta, L.; Brai, A.; Poli, G.; Tapparel, C.; Lembo, D.; et al. Novel Broad Spectrum Virucidal Molecules against Enveloped Viruses. 2018). […] The organic supernatant was evaluated by spectrophotometry.
The calibration curve of TBA-MDA-TBA complex was obtained using a MDA precursor 1,1,3,3-tetraethoxypropane. […] The solutions were subjected to TBA assay and analyzed at spectrophotometer. […]
A further data set is described as follows: Cytotoxicity, XTT test. Conditions: human. For orientation: Tetrazolium assays rely on reduction of a dye to a coloured formazan, in cell work by metabolically active cells.
A further data set deals with RSV. Briefly: RSV inhibition assay on Hep-2 cells. Conditions: human respiratory syncytial virus. The data set is classed as cell-based, RSV strain A2. The protocol: Hep-2 cells were pre-plated in a 96-well plate. The following day concentrations of compounds ranging from 50 μM to 0.0001 μM in DMSO were mixed with RSV (MOI 0.005 pfu/cell) and incubated for 1 hour at 37° C. The mixtures were subsequently added to the cells, which were then incubated at 37° C. for 3 h; monolayers were then washed and overlaid with 1.2% methylcellulose medium. 72 hours later cells were fixed and subjected to specific immunostaining using an RSV monoclonal antibody (Ab35958; Abeam, Cambridge, United Kingdom) in order to visualize syncytia. EC50 were calculated by comparing numbers of syncytia in treated and untreated wells. The effective concentration producing 50% reduction in plaque formation (EC50) was determined using Prism software. The selectivity index (SI) was calculated by dividing the CC50 by the EC50 value.

Data set [3] relates to HSV-2. The data set is described as follows: Post treatment assay, HSV-2 infected Vero cells. It is filed as cell-based, Herpes 2 virus (HSV-2). Conditions: Human alphaherpesvirus 2, Vero, read-out: antiviral activity value when added post-infection. Here is the method: Supernatants and cells were harvested and cell free virus infectivity titers were determined in duplicate by plaque assay in Vero cell monolayers. Percent inhibition was determined by comparing the titer measured in the presence of the compounds to that measured in untreated wells.

A short description of data set [4]: Cell viability (MTS) assay, MA104 cells. The data set is classed as cell-based. As to conditions: African green monkey, conditions of the HRoV assay. The protocol:
(§1) Cell viability was measured using the MITS [3-(4,5-dimethylthiazol-2-yl)-5-(3 carboxy methoxy phenyl)-2-(4-sulfophenyl)-2H-tetrazolium] assay. Cell cultures were seeded in 96-well plates and were incubated with different concentrations of compounds of the invention in triplicate under the same experimental conditions described for the antiviral assays. Cell viability was determined using the CellTiter 96 Proliferation Assay Kit (Promega, Madison, WI, USA) according to the manufacturer's instructions. Absorbances were measured using a Microplate Reader (Model 680, BIORAD) at 490 nm. The effect on cell viability at different concentrations of the compound was expressed as a percentage, by comparing absorbances of treated cells with those of cells incubated with culture medium and equal volumes of vehicle. The 50% cytotoxic concentrations (CC50) and 95% confidence intervals (CIs) were determined using Prism software (Graph-Pad Software, San Diego, CA).

In a further data set the test system is HIV Strain NL4-3. Briefly: HIV-1 inhibition assay, strain NL4-3, TZM-bl cells, CPRG readout. The data set is classed as cell-based. As to conditions: Human immunodeficiency virus 1, NL43, virus pretreated 1 h at 37° C. with compound. The protocol:
The human TZM-bl indicator cell line (obtained from the NIH AIDS reagents program, cat. Nr 8129, www.aidsreagent.org) was maintained at 37° C. and 5% CO2 in Dulbecco's modified Eagle's medium (DMEM) medium containing 10% fetal bovine serum, 50 μg/ml penicillin, and 50 μg/ml streptomycin. The HIV-1 laboratory strains NL (AD8) (NIH AIDS reagents program, cat. Nr, 11346) and NL4.3 (NIH AIDS reagents program, cat. Nr. 114) were titrated as previously reported by Tiberi et al (2014). Briefly, serial 5-fold dilutions of each virus were made in quadruplicate wells in 96-well culture plates, in a total volume of 100 μl of growth medium (DMEM), for a total of 8 dilution steps. Freshly trypsinized cells (20,000 cells in 100 μl of growth medium containing 75 μg/mL DEAE-dextran) were added to each well, and the plates were incubated at 37° C. in a humidified 5% CO2-95% air environment. After 48 h of incubation, the medium was removed and viral infection was quantified using a β-galactosidase (CPRG) assay (Roche). Twenty thousand TZM-bl cells/well were seeded in 96-well plates in complete DMEM supplemented with 30 μg/ml DEAE-dextran (Sigma-Aldrich). Three hundred times the 50% tissue culture infective dose (TCID50)/ml of each strain was pretreated for 1 h at 37° C. with six serial dilutions (10000 nM, 2000 nM, 400 nM, 80 nM, 16 nM, 3.2 nM) and then added to the cells. Vehicle (0.1% dimethyl sulfoxide [DMSO])-treated cells served as a negative control. […] After 2 days, viral infection was quantified using a CPRG assay (Roche cat nr 11379119103). The inhibitory curves were fitted by nonlinear regression, allowing for the calculation of the 50% effective concentration (EC50) using the Prism software. To evaluate the cell toxicity of the compounds, the metabolic XTT [2,3-bis-(2-methoxy-4-nitro-5-sulfophenyl)-2H-tetrazolium-5-carboxanilide] test (Sigma-Aldrich) was performed according to the manufacturer's instructions.

The subject of data set [5] is HSV-2. Briefly: During infection assay, HSV-2 on Vero cells without preincubation. As to conditions: Human alphaherpesvirus 2; HSV-2, Vero cells, no preincubation of compound and virus; read-out: EC50 in during infection (DI) assay. The data set is classed as cell-based, Herpes 2 virus (HSV-2). Here is the method: During infection cells were subjected to the same experiment described above for the evaluation of HSV inhibition without the preincubation between compounds and virus.

Another data set has as its system HSV-1. The data set is described as follows: HSV-1 plaque reduction assay on Vero cells. It is filed as cell-based, Herpes 1 virus (HSV-1). As to conditions: Human alphaherpesvirus 1, Vero. (In a plaque reduction assay, fewer plaques than in the control indicate reduced infectivity or spread.)
Data set [6] can be described thus: Cell viability (MTS) assay, Huh-7 cells. It is filed as cell-based. As to conditions: human, conditions of the DENV-2 assay (Table 6). The protocol:
as §1

The next data set concerns VSV. The data set is described as follows: microbe, parasite or virus in culture. Conditions: Vesicular stomatitis virus, Vero. It is filed as cell-based, Vesicular Stomatitis Virus (VSV).
A short description of data set [7]: Cell viability (MTS) assay, HELF cells. It is filed as cell-based. Conditions: human, conditions of the HCMV assay. Here is the method:
as §1

A further data set deals with ZIKAV. The data set is described as follows: ZIKA virus plaque reduction assay on Vero cells. It is filed as cell-based, Zika virus (PRVABC59).
Data set [8] deals with HSV-2. Briefly: Pretreatment assay, Vero cells treated before HSV-2. As to conditions: Vero cells pretreated 2 h at 37° C., then HSV-2. The data set is classed as cell-based, Herpes 2 virus (HSV-2). The protocol: Vero Cells were pretreated for 2 h at 37° C. with increasing concentrations of compound 15b in DMSO the inocula were then removed cells washed and HSV-2 was added on cells for 2 h at 37° C. Subsequently the same protocol described above for the evaluation of HSV inhibition was followed.

Usually EC90 stands for the concentration needed for an effect of 90%. A high value points to a need for much substance. Usually CC50 stands for the concentration that lowers cell viability or growth by half. A high value points to better tolerance by the cells. With `O=C1NC(=S)N(CCc2ccccc2)C(=O)/C1=C\c1ccc(-c2ccc(C(=O)O)c(O)c2)[nH]1` [Compound 15b, (Z)-4-(5-((4,6-dioxo-1-phenethyl-2-thioxotetrahydropyrimidin-5(2H)-ylidene)methyl)-1H-pyrrol-2-yl)-2-hydroxybenzoic Acid], the SI selectivity index in the data set with HSV-2 [1] (HSV-2, CC50 divided by EC50) is reported as above 3452; with ZIKAV (ZIKAV, CC50 divided by EC50), above 2563. Moreover, the concentration for an effect of 90% (EC90) in the data set with HSV-2 [1] (Human alphaherpesvirus 2, Vero, HSV-2 infected cells, 90% effective concentration) amounted to 1190 nM; with RSV it was 1510 nM; in the data set with HSV-1, 3720 nM; in the data set on VSV, 2170 nM. The EC50 in the data set with HSV-2 [1] (Human alphaherpesvirus 2, Vero, HSV-2 infected cells, compound mixed with virus 1 hour at 37° C.) stood at 86.9 nM; in the data set on RSV it was 315 nM; in the data set on HSV-2 [3] it was 775 nM; in the data set on HIV Strain NL4-3, 64 nM; with HSV-2 [5], 7890 nM; in the data set with HSV-1 it was 454 nM. Moreover, the EC50 was 144 nM in the data set on VSV and 43.3 nM in the data set on ZIKAV (Zika virus, Vero, ZIKAV infected cells). Moreover, in data set [2] (37° C. for 2 h, 0.5% linoleic acid containing liposomes, MDA readout), the lipid oxidation capability result was “able to oxidize polyunsaturated fatty acids”. The “oxidation of linoleic acid with tocopherol added” value in [2] (with 0.05% w/w (±)-α-tocopherol as antioxidant) was “reduced the oxidation of linoleic acid”. Besides, the CC50 in the data set “Cytotoxicity, XTT test” is above 20000 nM; in data set [4], above 300000 nM; in data set [6], 7900 nM; in [7] it was 36300 nM. Moreover, in the data set on HSV-2 [8], the “antiviral activity in pre-treatment assay” value is “inactive”.
